Measurements from the supplement of paper PMC10307832.

Assays:
Test in all cases: relative viability (nuclei count vs DMSO), 5 days (fraction); higher = more cells survive
Idelalisib + Foretinib = compound: CC[C@H](Nc1ncnc2[nH]cnc12)c1nc2cccc(F)c2c(=O)n1-c1ccccc1 [Idelalisib] + COc1cc2c(Oc3ccc(NC(=O)C4(C(=O)Nc5ccc(F)cc5)CC4)cc3F)ccnc2cc1OCCCN1CCOCC1 [Foretinib] (partner 0.25 µM)
Method in brief: (§1)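 Values are medians from duplicate plates. Each reflects relative viability, defined as the nuclei count of treated wells over that of vehicle wells. Lung cancer cell lines in 1536-well plates were pin-tool dosed one day after seeding with one drug alone or with a fixed anchor-drug dose plus five library-drug doses (not always all listed) in √10 steps, then fixed, stained and imaged at 4× after 5 days.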

Pemetrexed + Pictilisib = compound: Nc1nc2[nH]cc(CCc3ccc(C(=O)N[C@@H](CCC(=O)O)C(=O)O)cc3)c2c(=O)[nH]1 [Pemetrexed] + CS(=O)(=O)N1CCN(Cc2cc3nc(-c4cccc5[nH]ncc45)nc(N4CCOCC4)c3s2)CC1 [Pictilisib] (partner 1 µM)
Method in brief: as §1

Pemetrexed + Lapatinib = compound: Nc1nc2[nH]cc(CCc3ccc(C(=O)N[C@@H](CCC(=O)O)C(=O)O)cc3)c2c(=O)[nH]1 [Pemetrexed] + CS(=O)(=O)CCNCc1ccc(-c2ccc3ncnc(Nc4ccc(OCc5cccc(F)c5)c(Cl)c4)c3c2)o1 [Lapatinib] (partner 2 µM)
Method in brief: as §1

Idelalisib + Decitabine = compound: CC[C@H](Nc1ncnc2[nH]cnc12)c1nc2cccc(F)c2c(=O)n1-c1ccccc1 [Idelalisib] + Nc1ncn([C@H]2C[C@H](O)[C@@H](CO)O2)c(=O)n1 [Decitabine] (partner 2 µM)
Method in brief: as §1

| Cell Line | relative viability (Idelalisib + Foretinib; first compound 0.04 µM) | relative viability (Idelalisib + Foretinib; first compound 0.1265 µM) | relative viability (Idelalisib + Foretinib; first compound 0.4 µM) | relative viability (Idelalisib + Foretinib; first compound 4 µM) | relative viability (Pemetrexed + Pictilisib; first compound 0.002 µM) | relative viability (Pemetrexed + Pictilisib; first compound 0.006325 µM) | relative viability (Pemetrexed + Pictilisib; first compound 0.02 µM) | relative viability (Pemetrexed + Pictilisib; first compound 0.06325 µM) | relative viability (Pemetrexed + Pictilisib; first compound 0.2 µM) | relative viability (Pemetrexed + Lapatinib; first compound 0.002 µM) | relative viability (Pemetrexed + Lapatinib; first compound 0.006325 µM) | relative viability (Pemetrexed + Lapatinib; first compound 0.02 µM) | relative viability (Pemetrexed + Lapatinib; first compound 0.06325 µM) | relative viability (Pemetrexed + Lapatinib; first compound 0.2 µM) | relative viability (Idelalisib + Decitabine; first compound 0.04 µM) | relative viability (Idelalisib + Decitabine; first compound 0.1265 µM) | relative viability (Idelalisib + Decitabine; first compound 0.4 µM) | relative viability (Idelalisib + Decitabine; first compound 1.265 µM) | relative viability (Idelalisib + Decitabine; first compound 4 µM) | relative viability (Idelalisib + Foretinib; first compound 1.265 µM) |
| --- | --- | --- | --- | --- | --- | --- | --- | --- | --- | --- | --- | --- | --- | --- | --- | --- | --- | --- | --- | --- |
| NCI-H23 | 1.2 | 1.1 | 0.766 | 0.859 | 0.395 | 0.416 | 0.538 | 0.516 | 0.408 | 0.968 | 0.882 | 1.26 | 1.04 | 0.919 | 0.331 | 0.339 | 0.309 | 0.313 | 0.329 |  |
| HCC-827 | 1.1 | 0.971 | 1.04 | 0.915 | 0.74 | 0.973 | 0.929 | 0.95 | 0.664 | 0.178 | 0.196 | 0.169 | 0.191 | 0.166 | 0.379 | 0.246 | 0.347 | 0.331 | 0.286 | 1.05 |
| PC-3 [JPC-3] | 1.01 | 0.961 | 1.01 | 0.957 | 0.625 | 0.687 | 0.821 | 0.743 | 0.663 | 0.423 | 0.502 | 0.501 | 0.471 | 0.451 | 0.917 | 0.89 | 0.763 | 0.819 | 0.772 | 1.06 |
| NCI-H1355 | 0.992 | 0.946 | 0.907 | 0.823 | 0.294 | 0.383 | 0.377 | 0.481 | 0.428 | 0.783 | 1.05 | 0.991 | 1.04 | 0.975 | 0.346 | 0.326 | 0.364 | 0.369 | 0.324 | 0.868 |
| NCI-H727 | 1.1 | 0.968 | 0.629 | 0.691 | 0.398 | 0.399 | 0.415 | 0.378 | 0.369 | 0.802 | 0.825 | 0.634 | 0.844 | 0.773 | 1.03 | 0.747 | 0.867 | 0.881 | 0.889 | 0.92 |
| NCI-H1975 | 0.934 | 0.931 | 0.885 | 0.867 |  | 0.3 | 0.299 | 0.271 | 0.221 |  | 0.885 | 0.906 | 0.78 | 0.423 | 0.393 | 0.374 | 0.373 | 0.383 | 0.381 | 0.86 |
| NCI-H460 | 1.03 | 1.06 | 0.962 | 0.896 | 0.233 | 0.396 | 0.383 | 0.313 | 0.121 | 0.892 | 0.856 | 0.963 | 0.276 | 0.0581 | 0.382 | 0.562 | 0.448 | 0.466 | 0.503 | 1 |
| EPLC-272H | 0.793 | 0.667 | 0.662 | 0.517 | 0.375 | 0.348 | 0.409 | 0.326 | 0.325 | 0.806 | 1.04 | 1.16 | 0.972 | 1.04 | 0.35 | 0.354 | 0.366 | 0.435 | 0.333 | 0.635 |
| SK-LU-1 | 0.816 | 0.765 | 0.811 | 0.766 | 0.43 | 0.559 | 0.727 | 0.513 | 0.496 | 0.772 | 0.853 | 0.96 | 0.804 | 0.695 | 0.645 | 0.605 | 0.581 | 0.706 | 0.618 | 0.693 |
| NCI-H322M | 1.22 | 1.1 | 0.792 | 0.908 | 0.29 | 0.449 | 0.553 | 0.49 | 0.567 | 0.642 | 0.531 | 0.657 | 0.551 | 0.618 | 0.712 | 0.69 | 0.613 | 0.664 | 0.746 | 0.841 |
| NCI-H2405 | 1.11 | 1.06 | 0.952 | 0.956 | 0.455 | 0.436 | 0.507 | 0.474 | 0.355 | 1.13 | 1.05 | 1.14 | 1.04 | 1.07 | 0.751 | 0.752 | 0.644 | 0.838 | 0.691 | 1.01 |
| NCI-H1666 | 0.825 | 1.07 | 0.961 | 0.947 | 0.373 | 0.481 | 0.347 | 0.497 | 0.306 | 0.678 | 0.647 | 0.566 | 0.575 | 0.394 | 0.801 | 0.587 | 0.743 | 0.761 | 0.701 | 1.01 |
| NCI-H358 | 0.782 | 0.701 | 0.554 | 0.734 | 0.338 | 0.264 | 0.29 | 0.243 | 0.21 | 0.4 | 0.4 | 0.441 | 0.311 | 0.276 | 0.237 | 0.216 | 0.191 | 0.202 | 0.21 | 0.652 |
| H3255 | 0.641 | 0.569 | 0.853 | 0.921 | 0.385 | 0.43 | 0.504 | 0.42 | 0.431 |  | 0.15 | 0.278 | 0.245 | 0.296 | 0.902 | 0.623 | 0.538 | 0.721 | 0.512 | 0.939 |
| NCI-H2347 | 0.845 | 0.701 | 0.818 | 0.664 | 0.392 | 0.545 | 0.601 | 0.525 | 0.606 | 0.658 | 0.954 | 0.904 | 0.867 | 0.565 | 0.612 | 0.589 | 0.752 | 0.621 | 0.512 | 1.12 |
| LK-2 | 1.75 | 1.16 |  | 0.836 |  | 0.472 | 0.654 | 0.466 | 0.41 | 0.863 | 0.877 | 1.13 | 0.775 | 0.521 | 0.357 | 0.239 |  | 0.407 | 0.343 | 1.29 |
